“Also recorded” adds a separate entry of the source.
Experiments:
MCF-7 cell line = experiment: MTT-colorimetric cytotoxicity assay; type: cell-based; conditions: 100, 25 and 6.25 μg mL^-1
Procedure: Phthalimides were serially diluted in DMSO in a final concentration of 100, 25 and 6.25 μg mL^-1 and evaluated for their % cytotoxicity by using MTT-colorimetric assay on MCF-7 cell line. Cell lines were maintained in RPMI-1640 (Hi-Media, Mumbai) medium supplemented with heat inactivated FCS (10% v/v) and 100 U/mL of streptomycin and were cultured in a humidified 5% CO2 atmosphere at 37°C. 100 μL (~2×10^5) of cells were seeded into wells (per well) on a 96-well plate (Nunc, Maxi Sorp) and incubated for 16 h for adherence. After 16 h, media was aspirated from the wells and the cells were washed with RPMI-1640 without FCS. 75 μL of each compound and control was added to separate wells containing cell lines and incubated at 37°C in humidified 5% CO2 atmosphere for 4 h. After 4 h, media containing the compounds was replaced with 200 μL of normal RPMI-1640 and cells were further incubated for 48 h under same conditions. After 48 h media was replaced by 200 μL of MTT (3-(4, 5-dimethylthiazol-2-yl)-2, 5-diphenyltetrazolium bromide, 0.5 mg/mL of RPMI-1640) and further incubated for 2 h. The formazan crystals were formed and suspended in 100 μL iso-propanol containing 0.06 M HCl and 0.5% SDS. Aliquots were drawn from each well and colour intensity was measured spectrophotometrically in an ELISA plate reader (Biotek, ELx800) at 540 nm. Untreated cells were taken as control with 100% viability and cells without addition of MTT were used as blank. The relative cell viability (%) compared to control cells was calculated by [abs] sample/ [abs] control × 100.

[1] = system: P. falciparum developmental stages (asexual); experiment: Effect on P. falciparum developmental stages, Giemsa-stained smears; type: cell-based, Plasmodium falciparum; conditions: 5 μM
Procedure: Further, in order to assess the effect of potent molecule 5e on the parasite developmental stages (asexual), we treated tightly synchronized ring-stage parasite cultures with 5e at 5 μM concentration and counted the parasites at different developmental stages (rings, trophozoites and schizonts) in Giemsa-stained smears at three time points (36, 44, and 52 h after treatment). The control (untreated) parasite progressed through the first cell cycle (0–48 h), increased in size and density, developed into trophozoites and schizonts and subsequently formed viable merozoites. These merozoites were able to invade fresh RBCs and form new ring-stage parasites. (Fig 4).

plasmepsin 2 = biological target: T1, plasmepsin 2 (Plasmodium falciparum, UniProt P46925); experiment: Inhibition of plasmepsin 2, chromogenic substrate cleavage assay; type: biochemical; conditions: tested at 10 to 50 μM
T1 construct: preincubated at the assay pH for 3 minutes to allow conversion from the proenzyme to the mature enzyme form; made in house
T1 sequence (P46925 125-453): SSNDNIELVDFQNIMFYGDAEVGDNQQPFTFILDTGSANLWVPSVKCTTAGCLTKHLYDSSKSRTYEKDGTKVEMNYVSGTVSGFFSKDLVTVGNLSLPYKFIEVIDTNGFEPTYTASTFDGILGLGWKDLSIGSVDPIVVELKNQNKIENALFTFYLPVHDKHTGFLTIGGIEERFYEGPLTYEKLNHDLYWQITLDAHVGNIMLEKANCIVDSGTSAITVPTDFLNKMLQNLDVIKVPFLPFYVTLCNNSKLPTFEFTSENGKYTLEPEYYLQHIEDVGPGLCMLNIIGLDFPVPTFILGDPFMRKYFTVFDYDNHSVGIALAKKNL
Procedure: (§1) Synthetic compounds were dissolved in DMSO to make stock solutions at concentrations around 100 μM. Dilutions from these stocks were made to obtain solutions to use for studying inhibition of the plasmepsins 2 and 4 from P. falciparum. Assays of enzymatic activity were typically done using 50 micromolar substrate and 50 nanomolar enzyme at pH 4.5. The protein samples were preincubated at the assay pH for 3 minutes to allow conversion from the proenzyme to the mature enzyme form, then immediately mixed with inhibitor solutions and incubated for a further 5 minutes to permit the enzyme-inhibitor complex to form. Following this, the samples were mixed with samples of the substrate to yield a 50 μM substrate concentration in the final assay solution and immediately placed in a recording spectrophotometer to follow the reaction. The cleavage of the chromogenic substrate yields a shift in absorbance that can be quantified by the decrease in absorbance at 300 nm. Compounds were mixed with the enzymes at concentrations ranging from 10 to 50 μM range and the effect on enzyme activity studied in duplicate assays.
(§2) A second inhibitor concentration was chosen that would yield approximately 30–35% inhibition and a third inhibitor concentration was chosen to yield approximately 65–70% inhibition. The three resulting curves of initial velocity versus substrate concentration were fit simultaneously to the competitive inhibition scheme; this yields values of Vmax, Km, and Ki.
(§3) Plasmepsins, a family of aspartic proteases of malaria parasite, are known to participate in a wide variety of cellular processes essential for parasite survival. […] Similarly, plasmepsin 4 from P. falciparum can be prepared and activated. Catalytic activity of the plasmepsins can be studied by following the change in absorbance at 300 nm as cleavage occur between a Phe and a nitroPhe in the synthetic substrate, Lys-Pro-Ile-Glu-Phe-NO2Phe-Arg-Leu. The compounds listed in Tables 1, 2 and 3 were assayed for inhibition by preincubating with differnt concentrations of the compound with equal aliquots of either plasmepsin 2 or 4 followed by mixing with the assay substrate.

P. falciparum 3D7 = experiment: SYBR green I-based fluorescence parasite growth assay, CQ sensitive strain; type: cell-based, Plasmodium falciparum; conditions: Plasmodium falciparum; CQ sensitive strain 3D7; 48 h incubation; read-out: IC50 values ± SE, growth of P. falciparum (3D7)
Procedure: (§4) For compound screening, SYBR green I-based fluorescence assay was setup as described in literature. Sorbitol synchronized parasites were incubated under normal culture conditions at 2% hematocrit and 1% parasitemia in the absence or presence of increasing concentrations of the compounds. Chloroquine (CQ) was used as positive control, while 0.4% DMSO was used as the negative control.
(§5) We have studied the antimalarial effect of all the listed molecules in […] culture conditions in order to identify a putative lead structure for pharmacological applications.

plasmepsin 4 = biological target: T2, plasmepsin 4 (Plasmodium falciparum, UniProt Q8IM16); experiment: Inhibition of plasmepsin 4, chromogenic substrate cleavage assay; type: biochemical; conditions: tested at 10 to 50 μM
T2 construct: preincubated at the assay pH for 3 minutes to allow conversion from the proenzyme to the mature enzyme form; made in house
T2 sequence (Q8IM16 122-449): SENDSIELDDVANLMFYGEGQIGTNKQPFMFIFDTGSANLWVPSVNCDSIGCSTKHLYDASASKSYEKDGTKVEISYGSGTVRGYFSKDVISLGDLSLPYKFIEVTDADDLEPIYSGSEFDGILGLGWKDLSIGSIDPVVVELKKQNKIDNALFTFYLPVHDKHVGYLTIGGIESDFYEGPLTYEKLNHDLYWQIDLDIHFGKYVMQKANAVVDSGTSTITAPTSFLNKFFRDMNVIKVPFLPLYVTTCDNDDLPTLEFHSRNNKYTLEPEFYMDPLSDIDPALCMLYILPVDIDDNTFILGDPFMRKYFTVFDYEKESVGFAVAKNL
Procedure: as §1, §2, §3

[2] = system: CQ resistant strain (7GB) of P. falciparum; experiment: Antiplasmodial activity against CQ resistant strain; type: cell-based; conditions: Plasmodium falciparum; values in brackets; 48 h incubation; read-out: IC50 values ± SE, CQ resistant strain (7GB) (converted)
Procedure: as §4, §5

human erythrocytes = experiment: In vitro hemolytic activity; type: cell-based; conditions: 3.125 to 100 μg/mL, 37°C, 1 h
Procedure: In vitro hemolytic activity of all synthesized compounds was performed as per reported protocol with slight modifications. In brief, human erythrocytes were collected from Rotary Blood Bank (New Delhi, India) and suspended in phosphate buffer saline (PBS). The suspension (2% hemotocrit) was incubated with different concentrations (3.125 to 100 μg/mL) of the entire compound series at 37°C for 1 h. After 1 h, erythrocytes were pelleted at 3000 g for 10 min (Remi, R-8C/BL) at 4°C. The supernatant was collected and OD450 was determined spectrophotometrically (Biotek, ELx800 UV spectrophotometer) using PBS as a negative control and Triton X-100 for completely lysing the cells. The percent hemolysis was calculated using the following formula: Percent hemolysis = […]. The percent hemolysis was plotted against concentration of compounds for determining the dose cytotoxic to erythrocytes.

Q: Which “cytotoxic effect on MCF7 cell line (in words)” value (MCF-7 cell line) does the source give for CC(C)(C)OC(=O)N[C@H](Cc1ccccc1)[C@@H](O)CN1CCC(N2CCCCC2)CC1 [Compound 5e] here?
A: low cytotoxic effect; also recorded: less toxic

Q: What about the “total parasitemia compared with the control set” value ([1]; at 52 h) of the same molecule?
A: lower total parasitemia

Q: What about the “effect on parasite developmental stages” value ([1]; synchronized ring-stage cultures, 36, 44 and 52 h after treatment) of the same molecule?
A: developmental arrest in the transition from early to late schizont

Q: And the “inhibition of plasmepsin 2 (in words)” value (plasmepsin 2)?
A: did not inhibit

Q: And the IC50 (P. falciparum 3D7)?
A: 1160 ± 40 nM

Q: And the “inhibition of plasmepsin 4 (in words)” value (plasmepsin 4)?
A: did not inhibit

Q: And the IC50 [2]?
A: 2990 nM

Q: What about the “hemolysis of human erythrocytes (in words)” value (human erythrocytes) of the same molecule?
A: lower hemolysis

Reference: article PMC4621027, “Hydroxyethylamine Based Phthalimides as New Class of Plasmepsin Hits: Design, Synthesis and Antimalarial Evaluation” (PLoS ONE, 2015)
